Data reported in PubChem BioAssay (NCI).
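Exposure lasted 48 hours, with cells grown in 96-well plates and compounds tested at five concentrations. Definition used: TGI = concentration required for complete inhibition of growth.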

Experiments:
Experiment in all cases: NCI-60 cell line screen, 48 h
[1] = test system: COLO 205 colon
[2] = test system: RXF 393 renal
[3] = test system: RPMI-8226 leukemia
[4] = test system: OVCAR-5 ovarian
[5] = test system: UACC-62 melanoma
[6] = test system: OVCAR-3 ovarian
[7] = test system: OVCAR-8 ovarian
[8] = test system: 786-0 renal
[9] = test system: SNB-75 CNS
[10] = test system: SK-MEL-2 melanoma
[11] = test system: HOP-62 NSCLC
[12] = test system: A549 NSCLC
[13] = test system: EKVX NSCLC
[14] = test system: SNB-19 CNS
[15] = test system: SF-295 CNS
[16] = test system: NCI-H226 lung
[17] = test system: SF-268 CNS

SMILES	TGI [1] [µM]	TGI [2] [µM]	TGI [3] [µM]	TGI [4] [µM]	TGI [5] [µM]	TGI [6] [µM]	TGI [7] [µM]	TGI [8] [µM]	TGI [9] [µM]	TGI [10] [µM]	TGI [11] [µM]	TGI [12] [µM]	TGI [13] [µM]	TGI [14] [µM]	TGI [15] [µM]	TGI [16] [µM]	TGI [17] [µM]
CC(C)(C)NC(=O)NC12CC3CC(CC(F)(C3)C1)C2	> 100	> 100	> 100	> 100	> 100	> 100	> 100	> 100	> 100	> 100	> 100	> 100	> 100	> 100	–	–	–
CN(CCO)c1nc(N)cc(=O)[nH]1	> 100	> 100	> 100	> 100	> 100	> 100	> 100	> 100	> 100	> 100	> 100	> 100	> 100	> 100	> 100	> 100	> 100
CCN(CC)CCCC(C)Nc1ccnc2ccc3nn(C)nc3c12 (centres undefined)	> 100	–	> 100	> 100	> 100	–	> 100	> 100	> 100	–	> 100	> 100	> 100	> 100	> 100	> 100	> 100
NC(=O)c1coc(C2OC(CO)C(O)C2O)n1 (centres undefined)	> 100	–	> 100	> 100	> 100	> 100	–	> 100	–	> 100	> 100	> 100	> 100	> 100	–	> 100	> 100
Clc1ccccc1C1=NN(c2ccccc2)C2c3ccccc3OCC12 (centres undefined)	> 100	> 100	> 100	> 100	–	> 100	> 100	> 100	> 100	> 100	> 100	> 100	> 100	> 100	> 100	–	> 100
CC(=O)c1ccc2c(ccc(=O)n2C)c1	> 100	–	> 100	> 100	> 100	> 100	> 100	> 100	> 100	> 100	> 100	> 100	> 100	> 100	> 100	> 100	> 100
CCN1C[C@]2(C)CC[C@H](OC)C34C1C([C@H](OC(C)=O)[C@@H]32)[C@@]1(OC)C[C@H](OC)[C@H]2C[C@@H]4[C@@H]1[C@H]2O	> 100	> 100	> 100	> 100	> 100	–	> 100	> 100	> 100	> 100	> 100	> 100	> 100	> 100	> 100	> 100	> 100
COc1ccc(C2Oc3cc(OC)c(O)c(C)c3[C@H]2C)cc1 (some centres undefined)	> 100	> 100	–	> 100	> 100	> 100	> 100	> 100	69.5	> 100	> 100	> 100	> 100	> 100	> 100	> 100	> 100
c1ccc(C2=NOC3(c4ccccc4)SC4CCCCC4CN23)cc1 (centres undefined)	69.4	71.2	95.4	> 100	83.1	> 100	–	> 100	84.8	> 100	> 100	58.5	> 100	> 100	> 100	> 100	95.5
C=C1C(=O)OC2/C=C(/C)C3CC(O)C(C)(CC(OC(=O)/C(C)=C/C)C12)O3 (centres undefined)	3.08	3.49	> 22.4	21.6	5.22	14.2	3.99	11.5	28.2	7.34	46.7	23.6	14.5	30.8	> 54	35.3	14.4
CN(C)/N=C(/c1nc2ccc([N+](=O)[O-])cc2[nH]c1=O)C(O)c1ccco1 (centres undefined)	> 100	> 100	> 100	> 100	> 100	> 100	> 100	> 100	> 100	–	> 100	> 100	–	> 100	> 100	> 100	> 100
O=c1[nH]c2cc([N+](=O)[O-])ccc2nc1/C(=N/Nc1ccccc1)C(O)c1ccc(C(O)/C(=N\Nc2ccccc2)c2cnc3cc([N+](=O)[O-])ccc3n2)cc1 (centres undefined)	> 100	> 100	> 100	72.9	> 100	> 100	> 100	> 100	–	> 100	> 100	> 100	> 100	> 100	> 100	–	> 100
